According to paper PMC6290023 (Scientific Reports, 2018):
Peptide text beside a SMILES is read from it.

Tests used:
tMCAo model in mice = assay: Transient middle cerebral artery occlusion (tMCAo) model; type: in vivo; details: mouse tMCAo; for reduction of infarct volume: 150 μl i.v. 6 h after MCAo then s.c. Alzet pump 24 h; for neurological deficits (neurological severity score): start 6 h after MCAo
Protocol: The plan of animal studies was approved by the Animal Committee of Graduate School of Medicine, Osaka University (25-029-012), and all animal experiments were carried out in accordance with the guidelines of Osaka University. All surgeries were performed using isoflurane and all efforts were made to minimize suffering. The C57Bl6/J mice were obtained from CLEA Japan, Inc. The transient middle cerebral artery occlusion procedure was described previously (1). Briefly, the mice were anesthetized with isoflurane (1.4%). The cerebral blood flow (CBF) was measured using a laser Doppler flowmeter (Unique Acquisition software; Unique Medical, Osaka, Japan). A 6.0 monofilament surgical suture was advanced into the internal carotid artery to obstruct the origin of the middle cerebral artery. The filament was left in place for 40 min before withdrawal. For all the mice, the rectal temperature was maintained at 37.0 ± 0.5 °C during surgery and recovery period (until the animals regained consciousness). […] MHP1 (4 mg/ml in water) was diluted to 0.5, 1, or 2 mg/ml in 0.45% saline, and 150 μl of the MHP1 was injected intravenously at 6 or 8 h after the MCAo. MHP1 was subsequently injected subcutaneously for 24 hrs using Alzet mini-osmotic pump (2001D, DURECT Corporation, Cupertino, USA). The vehicle control for MHP1, 0.45% saline, was injected similarly.
The ischemic damage was evaluated at 48 h after MCAo in sections stained with cresyl violet. Coronal sections (12 μm thickness) were made at −1.4, −0.7, 0, 0.7 and 1.4 mm from the bregma, mounted on the stereomicroscope and photographed. The volume of the infarct was calculated by the sum of each area of all sections corrected by cerebral edema and multiplied by the thickness of the slices. In the experiment of tPA-induced hemorrhage, PE10-catheter was placed in the right internal jugular vein at 6 h after ischemia. The nylon suture was then removed and 10% of the MHP-AcN mixture (150 µg/mice) and tPA (10 mg/kg) were injected followed by continuous injection of residual mixture of MHP1-AcN and tPA using a syringe pump (UNIVENTOR 400 ANAESTHESIA UNIT, ZTN, MALTA). In the experiment of FeCl3 -induced thrombosis model in CCA, a piece of filter paper soaked in 7.5% FeCl3 was placed on the right CCA for 1 min and it was rinsed with saline. Blood flow was recorded by using a laser speckle blood flow imager (OMEGAZONE OZ-2, OMEGAWAVE, INC., Tokyo, Japan). tPA (10 mg/kg) or mixture of MHP1-AcN (150 μg/mice) and tPA was started to be administered at 30 min after CCA occlusion.

LPS-stimulated MG6 cells = assay: LDH assay in LPS-stimulated MG6 cells; type: cell-based, mouse

CC[C@H](C)[C@H](NC(=O)[C@H](CO)NC(=O)[C@@H](NC(=O)[C@H](CCCCN)NC(=O)[C@@H](NC(=O)[C@@H](NC(=O)[C@H](Cc1ccc(O)cc1)NC(=O)[C@@H](NC(=O)[C@H](CCSC)NC(=O)[C@H](CC(C)C)NC(C)=O)C(C)C)C(C)C)C(C)C)[C@@H](C)O)C(=O)N[C@@H](CCCCN)C(=O)N[C@H](C(=O)N1CCC[C@H]1C(=O)N[C@@H](CO)C(=O)N[C@@H](CO)C(=O)N[C@@H](Cc1c[nH]cn1)C(=O)N[C@@H](CC(N)=O)C(=O)N[C@@H](CC(C)C)C(=O)N[C@@H](CCSC)C(=O)N[C@@H](CCCCN)C(=O)NCC(=O)NCC(=O)N[C@@H](CO)C(=O)N[C@H](C(=O)N[C@@H](CCCCN)C(=O)N[C@@H](CC(N)=O)C(=O)N[C@@H](Cc1c[nH]c2ccccc12)C(=O)N[C@@H](CO)C(=O)NCC(=O)N[C@@H](CC(N)=O)C(N)=O)[C@@H](C)O)[C@@H](C)CC [MHP1-AcN] (Ac-LMVYVVKTSIKIPSSHNLMKGGSTKNWSGN-NH2)
reduction of infarct volume (tMCAo model in mice; 0.5 mg/ml, infarct at 48 h): effective
neurological deficits (neurological severity score) (tMCAo model in mice; 0.5 mg/ml): significantly improved
reduction of infarct volume (tMCAo model in mice; 1 mg/ml, infarct at 48 h): the most effective dose
neurological deficits (neurological severity score) (tMCAo model in mice; 1 mg/ml): significantly improved
neurological deficit (tMCAo model in mice; 1 mg/ml, start 8 h after ischemia, at 48 h after ischemia): significantly improved
infarct volume compared to saline-treated mice (tMCAo model in mice; 1 mg/ml, start 8 h after ischemia, infarct at 48 h): tendency of reduction
reduction of infarct volume (tMCAo model in mice; 2 mg/ml, infarct at 48 h): effective
neurological deficits (neurological severity score) (tMCAo model in mice; 2 mg/ml): tendency of recovery
cytotoxicity (LDH assay) (LPS-stimulated MG6 cells): did not increase cytotoxicity
